Reference: US20140113947A1, “PHARMACEUTICAL CREAM COMPOSITIONS OF OXYMETAZOLINE AND METHODS OF USE” (Allergan, Inc., priority 2011, published 2014)

Tests used:
[1] = In vitro permeation (Hanson Microette Franz Cell), flux across polysulfone membrane; assay type: in vitro ADME
Protocol: (§1) An in vitro permeation procedure for oxymetazoline cream was developed using the 0.01 and 0.10% w/w oxymetazoline cream. The in vitro experiments were conducted using Hanson Microette Franz Cell apparatus and 0.01N PBS (pH 7.4) as the receiving medium. Other critical parameters were evaluated such as the type of semi-synthetic membrane, sample timing (time dependent release-permeability profile), method sensitivity, specificity and linearity.
Permeation characterization of oxymetazoline cream of different strengths (0.01% w/w, 0.05% w/w, 0.10% w/w and 0.15% w/w) was based on flux study across two different artificial membranes (cellulose acetate and polysulfone). The concentration of oxymetazoline which permeated through the membranes was measured using an HPLC assay.

[2] = In vitro permeation (Hanson Microette Franz Cell), flux across cellulose acetate membrane; assay type: in vitro ADME
Protocol: as §1, with “linearity. Permeation characterization of oxymetazoline cream of different strengths (0.01% w/w, 0.05% w/w, 0.10% w/w and 0.15% w/w) was based on flux study across two different artificial membranes (cellulose acetate and polysulfone). The concentration of oxymetazoline which permeated through the membranes was measured using an HPLC assay.” for “linearity.”

[3] = concentration range 0.01-0.10% w/w
[4] = creams 0.01-0.15% w/w, dump and die profile

concentration level above which in vitro membrane transport reached saturation [1]: > 0.1 % w/w | Oxymetazoline permeability (AUC0-24h) as a function of concentration [1, 3]: linearly increased | time of peak of oxymetazoline permeation rate after cream application [1, 4]: 0.5 h | concentration level above which in vitro membrane transport reached saturation [2]: > 0.1 % w/w | Oxymetazoline permeability (AUC0-24h) as a function of concentration [2, 3]: linearly increased | time of peak of oxymetazoline permeation rate after cream application [2, 4]: 0.5 h
Compound: Cc1cc(C(C)(C)C)c(O)c(C)c1CC1=NCCN1 [oxymetazoline, 3-(4,5-dihydro-1H-imidazol-2-ylmethyl)-2,4-dimethyl-6-tert-butyl-phenol]
